Where two headings read alike, the source gives them in different places.
How the values were obtained:
[1] = tested on: G. rostochiensis pathotype Ro-1; experiment: Interaction of glycoalkaloid dilution series with PRL in hatching assay; assay type: in vivo; settings: Fig. 9
Excerpt: To investigate these interactions further, the response of PCN hatch to a dilution series of single natural potato-produced HFs (the glycoalkaloids α-solanine and α-chaconine: Devine, K.J. et al. ((1996) supra) was studied in the presence and absence of a PRL preparation, the concentration of the latter being adjusted to that used in Figs. 4 and 5.
Logarithmic dilution series ([…]) of the glycoalkaloids α-chaconine and α-solanine (Sigma Chemical Co. Poole, UK) were each prepared either in water or PRL (1mg ml^-1). Hatching activity was determined in these dilution series, with PRL (1mg ml^-1) and water as controls.
At each glycoalkaloid concentration, the hatching activity of (glycoalkaloid only), (PRL only) and (glycolalkaloid + PRL) preparations was determined. The difference between the observed hatch (in the presence of (glycoalkaloid only), (PRL only) and (glycoalkaloid + PRL) and the expected hatch if the effects of the glycoalkaloid and PRL were additive, (i.e. (glycoalkaloid only)) + (PRL only) was determined at each concentration of glycoalkaloid. The results are depicted in Fig. 9.

[2] = cited from earlier work
PCN = settings: in aqueous solutions or as a solid; cited from earlier work

Compound	effect on hatching activity of PRL ([1]; high concentrations of glycoalkaloid, dilution series in PRL (1mg ml^-1))	effect on hatching activity of PRL ([1]; lower concentrations of glycoalkaloid, over a range of four orders of magnitude)	stability ([2]; pH below 2 and above 7)	stability ([2]; temperatures above about 35°C)	concentration at which active (PCN)	optimum concentration (PCN)
C[C@H]1CC[C@@H]2[C@@H](C)[C@H]3[C@H](C[C@H]4[C@@H]5CC=C6C[C@@H](O[C@@H]7O[C@H](CO)[C@H](O)[C@H](O[C@@H]8O[C@H](CO)[C@@H](O)[C@H](O)[C@H]8O)[C@H]7O[C@@H]7O[C@@H](C)[C@H](O)[C@@H](O)[C@H]7O)CC[C@]6(C)[C@H]5CC[C@]34C)N2C1 [α-solanine]	markedly inhibited	interacted synergistically	–	–	–	–
trans-2-(2-,13-dihydroxy-9-methoxy-7,7,16-trimethyl-5,10,20-trioxo-19-oxahexacyclo [9.7.0.1^3,6.0^3,8.1^12,16]-eicosa-1(11),8-dien-15-yl) cyclopropropanecarboxylic acid [hatching agent]	–	–	unstable	unstable	0.01 - 1000 mg/kg soil	1 - 100 mg/kg soil
